Results taken from the NIST ThermoML archive (doi:10.1021/acs.jced.8b00524).
Numbers after ± are expanded uncertainties.

Assay: xn = mol fraction of the nth substance listed
Conditions: 100 kPa, Liquid; for viscosity: Concentric cylinders viscometry; for mass density: Vibrating tube method

CCCCCCCO [heptan-1-ol] + CCCCOC(C)=O
Conditions | mass density [kg/m3] | viscosity [mPa·s]
293.15 K, x2 = 0 | 822.2 ± 10 | 7.03 ± 0.35
293.15 K, x2 = 0.0819 | 826.3 ± 10 | 6.17 ± 0.31
293.15 K, x2 = 0.1604 | 830.3 ± 10 | 5.46 ± 0.27
293.15 K, x2 = 0.2399 | 834.5 ± 10 | 4.81 ± 0.24
293.15 K, x2 = 0.3497 | 840.6 ± 10 | 4.03 ± 0.2
293.15 K, x2 = 0.4399 | 845.7 ± 10 | 3.47 ± 0.17
293.15 K, x2 = 0.5743 | 853.6 ± 10 | 2.72 ± 0.14
293.15 K, x2 = 0.6496 | 858.2 ± 10 | 2.34 ± 0.12
293.15 K, x2 = 0.7391 | 863.8 ± 10 | 1.92 ± 0.1
293.15 K, x2 = 0.8491 | 870.9 ± 10 | 1.41 ± 0.07
293.15 K, x2 = 0.9385 | 876.8 ± 10 | 1.01 ± 0.05
298.15 K, x2 = 0 | 818.7 ± 10 | 5.92 ± 0.3
298.15 K, x2 = 0.0819 | 822.6 ± 10 | 5.17 ± 0.26
298.15 K, x2 = 0.1604 | 826.4 ± 10 | 4.56 ± 0.23
298.15 K, x2 = 0.2399 | 830.5 ± 10 | 3.99 ± 0.2
298.15 K, x2 = 0.3497 | 836.3 ± 10 | 3.33 ± 0.17
298.15 K, x2 = 0.4399 | 841.3 ± 10 | 2.86 ± 0.14
298.15 K, x2 = 0.5743 | 849 ± 10 | 2.25 ± 0.11
298.15 K, x2 = 0.6496 | 853.5 ± 10 | 1.95 ± 0.1
298.15 K, x2 = 0.7391 | 859 ± 10 | 1.61 ± 0.08
298.15 K, x2 = 0.8491 | 865.9 ± 10 | 1.22 ± 0.06
298.15 K, x2 = 0.9385 | 871.8 ± 10 | 0.9 ± 0.05
303.15 K, x2 = 0 | 815.2 ± 10 | 5.03 ± 0.25
303.15 K, x2 = 0.0819 | 818.8 ± 10 | 4.37 ± 0.22
303.15 K, x2 = 0.1604 | 822.5 ± 10 | 3.84 ± 0.19
303.15 K, x2 = 0.2399 | 826.3 ± 10 | 3.35 ± 0.17
303.15 K, x2 = 0.3497 | 831.9 ± 10 | 2.78 ± 0.14
303.15 K, x2 = 0.4399 | 836.7 ± 10 | 2.4 ± 0.12
303.15 K, x2 = 0.5743 | 844.2 ± 10 | 1.89 ± 0.1
303.15 K, x2 = 0.6496 | 848.6 ± 10 | 1.65 ± 0.08
303.15 K, x2 = 0.7391 | 853.9 ± 10 | 1.38 ± 0.07
303.15 K, x2 = 0.8491 | 860.8 ± 10 | 1.06 ± 0.05
303.15 K, x2 = 0.9385 | 866.6 ± 10 | 0.81 ± 0.04
308.15 K, x2 = 0 | 811.6 ± 10 | 4.3 ± 0.22
308.15 K, x2 = 0.0819 | 815 ± 10 | 3.73 ± 0.19
308.15 K, x2 = 0.1604 | 818.4 ± 10 | 3.26 ± 0.16
308.15 K, x2 = 0.2399 | 822.1 ± 10 | 2.84 ± 0.14
308.15 K, x2 = 0.3497 | 827.4 ± 10 | 2.36 ± 0.12
308.15 K, x2 = 0.4399 | 832.1 ± 10 | 2.03 ± 0.1
308.15 K, x2 = 0.5743 | 839.3 ± 10 | 1.61 ± 0.08
308.15 K, x2 = 0.6496 | 843.6 ± 10 | 1.41 ± 0.07
308.15 K, x2 = 0.7391 | 848.9 ± 10 | 1.19 ± 0.06
308.15 K, x2 = 0.8491 | 855.7 ± 10 | 0.94 ± 0.05
308.15 K, x2 = 0.9385 | 861.4 ± 10 | 0.73 ± 0.04
313.15 K, x2 = 0 | 808 ± 10 | 3.71 ± 0.19
313.15 K, x2 = 0.0819 | 811 ± 10 | 3.19 ± 0.16
313.15 K, x2 = 0.1604 | 814.2 ± 10 | 2.78 ± 0.14
313.15 K, x2 = 0.2399 | 817.6 ± 10 | 2.42 ± 0.12
313.15 K, x2 = 0.3497 | 822.7 ± 10 | 2.01 ± 0.1
313.15 K, x2 = 0.4399 | 827.1 ± 10 | 1.74 ± 0.09
313.15 K, x2 = 0.5743 | 834.1 ± 10 | 1.4 ± 0.07
313.15 K, x2 = 0.6496 | 838.3 ± 10 | 1.23 ± 0.06
313.15 K, x2 = 0.7391 | 843.5 ± 10 | 1.06 ± 0.05
313.15 K, x2 = 0.8491 | 850.3 ± 10 | 0.85 ± 0.04
313.15 K, x2 = 0.9385 | 856 ± 10 | 0.67 ± 0.03
318.15 K, x2 = 0 | 804.4 ± 10 | 3.21 ± 0.16
318.15 K, x2 = 0.0819 | 807.2 ± 10 | 2.75 ± 0.14
318.15 K, x2 = 0.1604 | 810.1 ± 10 | 2.4 ± 0.12
318.15 K, x2 = 0.2399 | 813.3 ± 10 | 2.08 ± 0.1
318.15 K, x2 = 0.3497 | 818.1 ± 10 | 1.73 ± 0.09
318.15 K, x2 = 0.4399 | 822.3 ± 10 | 1.49 ± 0.08
318.15 K, x2 = 0.5743 | 829.2 ± 10 | 1.22 ± 0.06
318.15 K, x2 = 0.6496 | 833.3 ± 10 | 1.09 ± 0.06
318.15 K, x2 = 0.7391 | 838.4 ± 10 | 0.94 ± 0.05
318.15 K, x2 = 0.8491 | 845.1 ± 10 | 0.77 ± 0.04
318.15 K, x2 = 0.9385 | 850.9 ± 10 | 0.62 ± 0.03
323.15 K, x2 = 0 | 800.7 ± 10 | 2.79 ± 0.14
323.15 K, x2 = 0.0819 | 803.2 ± 10 | 2.4 ± 0.12
323.15 K, x2 = 0.1604 | 806 ± 10 | 2.09 ± 0.11
323.15 K, x2 = 0.2399 | 808.9 ± 10 | 1.81 ± 0.09
323.15 K, x2 = 0.3497 | 813.5 ± 10 | 1.5 ± 0.08
323.15 K, x2 = 0.4399 | 817.6 ± 10 | 1.3 ± 0.07
323.15 K, x2 = 0.5743 | 824.2 ± 10 | 1.06 ± 0.05
323.15 K, x2 = 0.6496 | 828.2 ± 10 | 0.95 ± 0.05
323.15 K, x2 = 0.7391 | 833.2 ± 10 | 0.83 ± 0.04
323.15 K, x2 = 0.8491 | 839.9 ± 10 | 0.7 ± 0.04
323.15 K, x2 = 0.9385 | 845.7 ± 10 | 0.58 ± 0.03
